Reference: patent US20110105393A1, “METHODS FOR PROMOTING STEM CELL PROLIFERATION AND SURVIVAL” (priority 2007, published 2011)

Tests used:
adult mouse SVZ cultures = test: Survival/generation of adult mouse SVZ NSC cultures (colony and cell number); type: cell-based
Experimental: Cell culture: E13.5 cortical embryonic mouse CNS stem cells were grown as previously described (Johe, et al., Genes Dev 10, 3129-40, 1996). Cells were expanded in serum-free DMEM/F12 medium with N2 supplement and FGF2 (20 ng/ml) for 5 days under 5% oxygen conditions and were re-plated fresh or from frozen stocks at 1,000-10,000 cells per cm^2. FGF2 was included throughout the studies, unless otherwise stated. Adult rat (3-6 months old) or adult mouse (2-4 months old) SVZ NSC cultures were grown in the same medium as the fetal cultures.
Pharmacological treatments: Unless otherwise stated, the following concentrations were used: Dll4 and Ang-2 (in vitro, 500 ng/ml; in vivo 12.5 μg as a single injection), FGF2 (in vitro, 20 ng/ml), JAK inhibitor (in vitro, 200 nM; in vivo, 250 ng as a single injection), insulin (in vitro, 25 μg/ml; in vivo, 40 μg as a single injection), DAPT (1 μM), Fluorogold (0.5 μg). For the survival assays, compounds were added daily and Notch ligands every 2 days for the duration of the experiment. For the effects of kinase inhibitors on Notch activation, cells were pre-incubated for 1 h prior to Notch activation.
Hes3 mRNA is present in fetal NSC cultures under conditions that support their self-renewal but CNTF-induced differentiation (Bonni, A. et al., Science 278, 477-83, 1997; Rajan & McKay, J Neurosci 18, 3620-9, 1998): downregulates Hes3 message (Androutsellis-Theotokis, A. et al., Nature 442, 823-6, 2006). Knockout studies have shown a role of Hes3 in self-renewal (Hatakeyama, J. et al., Development 131, 5539-50, 2004). It was investigated if Hes3 mediates stem cell functions in vitro to assess its use as a functional NSC marker. Fetal (E13.5) cortical tissue was dissociated and magnetic sorting was used to isolate a cell population that expressed AC133, an established marker of NSCs (Uchida, N. et al., Proc Natl Acad Sci USA 97, 14720-5, 2000). Sorted (AC133+) cells expressed Hes3 and Sox2, another established NSC marker (Zappone, M. V. et al., Development 127, 2367-82, 2000). […] To investigate if Hes3 is a mediator of pro-survival signals for NSCs, adult mouse SVZ cultures (which respond strongly to pro-survival signals) were treated with insulin, Dll4, and a combination of the two.

STAT3-Ser727 = STAT3-Ser727 phosphorylation in NSC cultures; type: cell-based, mouse
Experimental: Cell culture: E13.5 cortical embryonic mouse CNS stem cells were grown as previously described (Johe, et al., Genes Dev 10, 3129-40, 1996). Cells were expanded in serum-free DMEM/F12 medium with N2 supplement and FGF2 (20 ng/ml) for 5 days under 5% oxygen conditions and were re-plated fresh or from frozen stocks at 1,000-10,000 cells per cm^2. FGF2 was included throughout the studies, unless otherwise stated. […] Pharmacological treatments: Unless otherwise stated, the following concentrations were used: Dll4 and Ang-2 (in vitro, 500 ng/ml; in vivo 12.5 μg as a single injection), FGF2 (in vitro, 20 ng/ml), JAK inhibitor (in vitro, 200 nM; in vivo, 250 ng as a single injection), insulin (in vitro, 25 μg/ml; in vivo, 40 μg as a single injection), DAPT (1 μM), Fluorogold (0.5 μg). For the survival assays, compounds were added daily and Notch ligands every 2 days for the duration of the experiment. For the effects of kinase inhibitors on Notch activation, cells were pre-incubated for 1 h prior to Notch activation. […] Activation of the Notch receptor by addition of insulin or Dll4 was inhibited by DAPT, a γ-secretase inhibitor that blocks Notch cleavage. […] Insulin maintained STAT[…]727 phosphorylation levels, and acutely (1-h) induced it following a 16-h insulin withdrawal phase (FIG. 1c). […] Fetal NSCs in culture express Ang-1, and treatment (2 days) with Dll4 maintained it whereas CNTF reduced it. Ang-2 expression was maintained under these conditions. […] Ang-2 induced mTOR and STAT3-S727 phosphorylation, unlike Ang-1 (FIG. 2a). Ang-1, however, induced Akt phosphorylation.

6-OHDA lesioned rats = test: Amphetamine-induced rotometry in the 6OHDA lesion model of Parkinson's disease; type: in vivo, rat; conditions: for recovery in rotational bias: single intraventricular injection 2 weeks after lesion, measured over next 13 weeks, n=4-7 (FIG. 13a)
Experimental: Pharmacological treatments.
To investigate the clinical potential of this treatment approach, the compounds were used in an animal model of Parkinson's disease. Adult rats were lesioned by intra-striatal 6-OH-DA (Przedborski, S. et al., Neuroscience 67, 631-47, 1995). After two weeks, a single injection of the compounds was administered in the lateral ventricle ipsilateral to the lesion. Amphetamine-induced rotations were measured bi-weekly throughout the experiment. Thirteen weeks after treatment they were given a single injection of fluorogold in the striatum to label the […] dopaminergic projection.

NSC cultures = test: Incidence of Tie-2 spikes in NSC cultures; type: cell-based; conditions: for % of cells with at least one spike: NSC cultures; for spike number: thirty minutes after treatment
Experimental: A protrusion of the cell membrane was identified in neuronal stem cells (NSCs) when the Tie-2 receptor is concentrated. This can be visualized using antibodies that bind Tie-2. The protrusion was termed a spike. These spikes appear 30 minutes after treatment with pharmaceutical agents. […] increase spike number thirty minutes after treatment. […] Thus, a novel sub-cellular structure ahs been identified. These structures could regulate the responsiveness of cells to treatments.
Thus, a novel protrusion of the cell membrane in NSCs has been identified where the Tie-2 receptor is concentrated. This can be easily visualized using an antibody against Tie-2 that recognizes a particular epitope. […] Indeed, the spike is devoid of actin filaments or tubulin. The spikes can be detected within thirty minutes of contacting the cultures with an the factors. Thus, the spikes provide a rapid assay for the effect of pharmacologic agents.

[1] = wild-type adult mouse SVZ cultures

| Substance | colony number and overall cell number (adult mouse SVZ cultures; cells from Hes3 null mice) | colony number and overall cell number (adult mouse SVZ cultures; [1]) | STAT3-Ser727 phosphorylation (STAT3-Ser727; acute (1-h) addition following a 16-h insulin withdrawal) | STAT3-Ser727 phosphorylation levels (STAT3-Ser727; continued presence in NSC culture) | amphetamine-induced rotations (behavioural recovery) (6-OHDA lesioned rats; single intra-ventricular injection 2 weeks after 6-OHDA lesion (FIG. 6a)) | recovery in rotational bias (6-OHDA lesioned rats) | % of cells with at least one spike (NSC cultures) [%] | spike number (NSC cultures) | STAT3-S727 phosphorylation (STAT3-Ser727; NSC cultures, 0.5 μg/ml (FIG. 2a)) |
| --- | --- | --- | --- | --- | --- | --- | --- | --- | --- |
| insulin: insulin (Sigma, 19278), growth factor | moderate (but significant) benefits | great increase | induced | maintained | – | – | – | – | – |
| Dll4: Notch ligand Delta-like 4; mouse Dll4 (1389-D4) from R&D | moderate (but significant) benefits | great increase | – | – | long-lasting behavioural recovery | partial recovery | 2.1 | increase | – |
| Ang-2: human angiopoietin-2 (623-AN) from R&D; antagonist for angiopoietin-1 at Tie2 | – | – | – | – | – | complete and stable recovery | 2.5 | increase | induced |
